In article PMC5325331, “A steroid like phytochemical Antcin M is an anti-aging reagent that eliminates hyperglycemia-accelerated premature senescence in dermal fibroblasts by direct activation of Nrf2 and SIRT-1” (Oncotarget, 2016):

Experiments:
[1] = test system: C. elegans wild type Bristol N2; test: Stress-resistance assay (Juglone) in C. elegans; format: in vivo, Caenorhabditis elegans; conditions: pretreatment 10 μM for 3 days, then Juglone 250 μM for 2.5, 3.5 and 4.5 h
Protocol: The wild type Bristol N2 strain was used in this study. C. elegans and Escherichia coli OP50 strain were obtained from the Caenorhabditis Genetic Center, University of Minnesota (Minneapolis-St. Paul, MN). Worms were maintained at 20°C on nematode growth medium (NGM). Hatched worms (L1-stage larvae) were transferred to fresh agar plates and cultured with E. coli OP50 as a food source until they reached the L4 larvae stage. Synchronization of worm cultures was achieved by hypochlorite treatment of gravid hermaphrodites.
Age synchronized L1 larvae were incubated with liquid S-basal medium containing E. coli OP50 at a density of 1 × 10^9 cells. Ml and 10 and 20 μM ANM or 0.01% DMSO (vehicle control) for 3 days. Subsequently, adult worms were subjected to oxidative stress assay. To induce oxidative stress, worms were incubated with Juglone (5-hydroxyl-1,4-naphthoquinone; Sigma), an ROS-generating agent. ANM treated and control worms were transferred to S-basal medium containing 250 μM Juglone, and incubated from 2.5, 3.5 and 4.5 h. After treatment, viable worms were scored. […] The test was performed triplicate.

HNDFs [2] = test: SA-β-gal senescence assay in HG-induced HNDFs; format: cell-based, human
Protocol: (§1) Human normal dermal fibroblasts (HNDFs, CCD966SK) and human umbilical vein endothelial cells (HUVECs) were obtained from the Bioresource Collection and Research Center (BCRC), Hsinchu, Taiwan. HNDFs were grown in MEM containing 10% FBS, 2 mM L-glutamine, 100 U/mL penicillin and streptomycin at 37°C in a fully humidified atmosphere of 5% CO2. Likewise, HUVECs were grown in M-199 medium supplemented with ECGS, heparin, 10% FBS and 100 U/mL penicillin and streptomycin at 37°C in a fully humidified atmosphere of 5% CO2. High-glucose treatment was performed by treating cells with 15 or 30 mM D-glucose (HG) for 24-72 h.
Senescence-associated β-galactosidase (SA-β-gal) activity was determined in formaldehyde-fixed histochemical staining kit according to the manufacturer's instructions (Cell Signaling Technology, Danvers, […]). Briefly, cells were grown in 6-well plates at a density of 5 × 10^4 cells/well, and incubated with HG or test samples for 48 h (HUVECs) or 72 h (HNDFs). After incubation, cells were stained with SA-β-gal staining solution at pH 6.0 overnight and then the development of blue staining was observed and photographed under a bright-field microscope (Motic Electric Group, Xiamen, P.R. China).

HNDFs [3] = test: Flow cytometric detection of intracellular ROS (DCFH2-DA) in HNDFs; format: cell-based, human
Protocol: Intracellular ROS accumulation was determined using the dye DCFH2-DA following a procedure described earlier. Briefly, HNDFs (1 × 10^5 cells/well) were seeded in 6-well plates and incubated with HG in the presence or absence of test samples for 24 h. At the end of the incubation, the culture supernatant was removed and cells were washed twice with PBS. DCFH2-DA (10 μM) was mixed with 500 μL MEM and added to the culture plate. After incubation for 30 minutes, cells were collected by trypsin and the fluorescence shift was quantified using a flow cytometer (Beckman Coulter). Data were acquired and analyzed using CXP software (Beckman Coulter).

HO-1 and NQO-1 mRNA = test: Q-PCR of anti-oxidant genes in HNDFs; format: cell-based, human; conditions: ANM 10 μM, 12 h
Protocol: Total RNA was extracted from cultured HNDFs using Trizol Reagent (Thermo Fisher Scientific). Q-PCR analysis was performed using Applied Biosystems detection instruments and software. Forward and reverse primers (10 μM), and the working solution SYBR green, was used as a PCR master mix, under the following conditions: 96°C for 3 minutes followed by 40 cycles at 96°C for 1 minute, 50°C for 30 seconds and 72°C for 90 seconds. GAPDH was used as an internal standard to control for variability in amplification because of differences in starting mRNA concentrations. The copy number of each transcript was calculated as the relative copy number normalized by GAPDH copy number.

HNDFs [4] = test: Cytotoxicity of antcins against HNDFs (MTT assay); format: cell-based, human; conditions: Homo sapiens, 72 h, read-out: IC50 (50% inhibitory concentration) against HNDFs
Protocol: Figure 2 Effects of antcins on HG-induced senescence in HNDFs A. Type of antcins subjected to screen for potential anti-aging agents for skin aging. Names and chemical structures of the antcins are shown in the left and centrer column, respectively. The cytotoxic effects of antcins against HNDFs. Briefly, HNDFs were incubated with increasing concentrations (1, 5, 10 and 20 μM) of antcins including antcin A, antcin B, antcin C, antcin H, anticn K and antcin M for 72 h and the cell viability was determined by MTT assay. The 50% inhibitory concentrations (IC50) of each compound against HNDFs are shown in right column. B. Cells were incubated with antcin A (10 μM), antcin H (10 μM) and antcin M (10 μM) in the presence of HG (30 mM) for 72 h. Cellular senescence was determined by SA-β-gal activity. […] C. HNDFs were incubated with antcin A (10 μM), antcin H (10 μM) and antcin M (10 μM) in the presence of HG (30 mM) for 72 h. Senescence-associated marker proteins such as p16^INK4A, p21^CIP1 and SMP30 were determined by western blot analysis. D. To determine the effect of antcins on cell proliferation efficacy, HNDFs 5 × 10^4 cells/well in 6-well plates were incubated with antcins in the presence of HG (30 mM) for 72 h. Number of viable cells were quantified by the tryphan blue exclusion method. Results are expressed as mean ± S.E.M of three indipendent expriments. Statistical significance was et at ^ФP < 0.05 compared to NG vs HG and *P < 0.05 compared to HG vs. samples.
as §1
Cell viability was assessed by MTT colorimetric assay. Briefly, HNDFs (2 × 10^4 cells/well) or HUVECs (5 × 10^4 cells/well) were seeded in a 24-well culture plate. After treatment with HG (15 and 30 mM) in the presence or absence of samples for 24-72 h, culture media was withdrawn and incubated with MTT (1 mg/mL) in fresh medium for 2 h. The MTT formazan crystals were dissolved in 400 μL of DMSO and the samples were measured at 570 nm […] using an ELISA microplate reader (Bio-Tek Instruments, Winooski, VT). The percentage of cell viability (%) was calculated as (A570 of treated cells/A570 of untreated cells) × 100.

C=C(CCC(C)C1CCC2C3=C(C(=O)C(O)C21C)C1(C)CCC(O)C(C)C1CC3)C(C)C(=O)O (stereo not shown) [ANM, antcin M]
survival rate of worms exposed to oxidative stress [1]: significantly increased the survival rate
SA-β-gal positive cells (HNDFs [2]; 10 μM with HG (30 mM) for 72 h, HG alone 9.59-fold (Figure 2B)): 1.51 fold
SA-β-gal positive cells (HNDFs [2]; ANM 10 μM with HG (30 mM) for 72 h, HG alone 5.72-fold (Figure 4B)): 1.89 fold
HG-induced ROS generation (HNDFs [3]; ANM 10 μM or NAC 100 μM with HG (30 mM) for 24 h, HG alone 426.2%): 200.8%
ROS generation, treatment alone (HNDFs [3]; ANM 10 μM or NAC 100 μM without HG, 24 h): did not significantly increase ROS generation
mRNA levels of HO-1 and NQO-1 (HO-1 and NQO-1 mRNA): significantly increased
IC50 (HNDFs [4]): > 50 µM
